{"source": "paper PMC3079562", "about": "(Nature chemical biology, 2011)", "target": "T1, NosL (Streptomyces actuosus, UniProt C6FX51)", "T1 sequence (C6FX51 1-400)": "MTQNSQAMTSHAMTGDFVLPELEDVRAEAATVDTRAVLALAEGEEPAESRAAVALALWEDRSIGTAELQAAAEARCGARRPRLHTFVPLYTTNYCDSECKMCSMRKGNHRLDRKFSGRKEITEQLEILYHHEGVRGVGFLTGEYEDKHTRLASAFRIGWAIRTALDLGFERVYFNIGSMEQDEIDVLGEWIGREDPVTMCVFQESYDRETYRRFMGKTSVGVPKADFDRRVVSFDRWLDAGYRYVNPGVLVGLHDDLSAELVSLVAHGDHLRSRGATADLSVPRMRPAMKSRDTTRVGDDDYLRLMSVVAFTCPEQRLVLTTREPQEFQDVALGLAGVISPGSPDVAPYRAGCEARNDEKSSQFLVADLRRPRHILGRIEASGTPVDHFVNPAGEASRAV", "settings": "with L-Trp; otherwise same"}
{"smiles": "C[S+](CC[C@H](N)C(=O)O)C[C@H]1O[C@@H](n2cnc3c(N)ncnc32)[C@H](O)[C@@H]1O", "note": "(stereo partly shown) [S-AdoMet]", "values": [{"measurement": "HPLC-MS of product 5'-deoxyadenosine", "result": "S-AdoMet consumption was independent of L-Trp, but significantly enhanced by adding L-Trp"}]}
